Source: the CheMixHub ionic liquid set

Assay: xn = mol fraction of the nth substance listed
Conditions: for electrical conductivity: 101 kPa; for viscosity: 100 kPa, x3 = 0

CCCCCCCCCCCC[N+](C)(C)C.[Br-] + [Cl-].[Na+] + O
298.15 K
Conditions	electrical conductivity [S/m]
x1 = 2.89e-06, x2 = 0.001799	0.8786
x1 = 4.51e-06, x2 = 0.0001802	0.1179
x1 = 7.42e-06, x2 = 0.001799	0.8778
x1 = 9.37e-06, x2 = 0.0001802	0.1201
x1 = 1.357e-05, x2 = 0.001799	0.878
x1 = 1.406e-05, x2 = 0.0001802	0.1223
x1 = 2.037e-05, x2 = 0.0001802	0.1252
x1 = 2.28e-05, x2 = 0.001799	0.8786
x1 = 2.92e-05, x2 = 0.0001802	0.1294
x1 = 3.184e-05, x2 = 0.001799	0.8802
x1 = 4.038e-05, x2 = 0.0001802	0.1348
x1 = 4.071e-05, x2 = 0.001799	0.8816
x1 = 4.957e-05, x2 = 0.001799	0.8831
x1 = 5.047e-05, x2 = 0.0001802	0.1397
x1 = 5.536e-05, x2 = 0.001799	0.8846
x1 = 6.115e-05, x2 = 0.001799	0.8858
x1 = 6.183e-05, x2 = 0.0001802	0.1451
x1 = 6.694e-05, x2 = 0.001799	0.8876
x1 = 7.273e-05, x2 = 0.001799	0.8895
x1 = 7.319e-05, x2 = 0.0001801	0.1504
x1 = 7.87e-05, x2 = 0.001799	0.8913
x1 = 8.4e-05, x2 = 0.0001801	0.1556
x1 = 8.467e-05, x2 = 0.001799	0.893
x1 = 9.064e-05, x2 = 0.001799	0.8946
x1 = 9.481e-05, x2 = 0.0001801	0.1607
x1 = 9.642e-05, x2 = 0.001799	0.8963
x1 = 0.000102, x2 = 0.001799	0.8978
x1 = 0.0001071, x2 = 0.0001801	0.1667
x1 = 0.0001078, x2 = 0.001799	0.8993
x1 = 0.0001134, x2 = 0.001799	0.9008
x1 = 0.0001199, x2 = 0.0001801	0.1727
x1 = 0.0001219, x2 = 0.001799	0.9032
x1 = 0.0001275, x2 = 0.001799	0.9048
x1 = 0.0001309, x2 = 0.0001801	0.1778
x1 = 0.0001331, x2 = 0.001799	0.9066
x1 = 0.0001415, x2 = 0.001798	0.9086
x1 = 0.0001435, x2 = 0.0001801	0.1838
x1 = 0.0001498, x2 = 0.001798	0.9101
x1 = 0.0001548, x2 = 0.0001801	0.1892
x1 = 0.0001554, x2 = 0.001798	0.9111
x1 = 0.000161, x2 = 0.001798	0.9122
x1 = 0.0001673, x2 = 0.0001801	0.1949
x1 = 0.0001693, x2 = 0.001798	0.9132
x1 = 0.0001776, x2 = 0.001798	0.9143
x1 = 0.0001793, x2 = 0.0001801	0.2005
x1 = 0.0001856, x2 = 0.001798	0.9156
x1 = 0.0001914, x2 = 0.0001801	0.2061
x1 = 0.0001935, x2 = 0.001798	0.9166
x1 = 0.0002017, x2 = 0.001798	0.9175
x1 = 0.0002022, x2 = 0.0001801	0.2111
x1 = 0.0002098, x2 = 0.001798	0.9186
x1 = 0.0002138, x2 = 0.0001801	0.2164
x1 = 0.000218, x2 = 0.001798	0.9197
x1 = 0.0002251, x2 = 0.0001801	0.2214
x1 = 0.0002259, x2 = 0.001798	0.9207
x1 = 0.0002339, x2 = 0.001798	0.9217
x1 = 0.0002365, x2 = 0.0001801	0.2263
x1 = 0.000246, x2 = 0.0001801	0.2301
x1 = 0.000257, x2 = 0.0001801	0.2333
x1 = 0.0002685, x2 = 0.0001801	0.2357
x1 = 0.0002797, x2 = 0.0001801	0.2376
x1 = 0.0002912, x2 = 0.0001801	0.2394
x1 = 0.0003044, x2 = 0.0001801	0.2413
x1 = 0.000319, x2 = 0.0001801	0.2432
x1 = 0.0003359, x2 = 0.0001801	0.2454
x1 = 0.0003538, x2 = 0.0001801	0.2477
x1 = 0.0003736, x2 = 0.0001801	0.2502
x1 = 0.0003955, x2 = 0.0001801	0.2528
x1 = 0.0004254, x2 = 0.0001801	0.2566

OC[C@H]1O[C@@](CO)(O[C@H]2O[C@H](CO)[C@@H](O)[C@H](O)[C@H]2O)[C@@H](O)[C@@H]1O + O + CCCCCC[n+]1ccn(C)c1.[Br-]
viscosity [mPa·s]
Conditions	x1 = 0.001819	x1 = 0.002681	x1 = 0.003595	x1 = 0.004483	x1 = 0.006262	x1 = 0.007151	x1 = 0.008891
288.15 K	1.252	1.306	1.362	1.414	1.517	1.571	1.678
298.15 K	0.98	1.021	1.065	1.104	1.182	1.222	1.295
308.15 K	0.789	0.822	0.855	0.886	0.949	0.978	1.035
318.15 K	0.657	0.683	0.709	0.733	0.783	0.805	0.86
